Assay [1] deals with T1, human A2a adenosine receptor (Homo sapiens, UniProt P29274).
T1 construct: purchased PerkinElmer RB-HA2a; host or cells: HEK293
The assay can be described thus: Ligand Binding Assay for Adenosine A2a Receptor (A2A-B). To be noted: HEK293 plasma membrane, radioligand [3H]CGS21680. Here is the method:
Ligand Binding Assay for Adenosine A2a Receptor
Ligand binding assay of adenosine A2a receptor was performed using plasma membrane of HEK293 cells containing human A2a adenosine receptor (PerkinElmer, RB-HA2a) and radioligand [^3H]CGS21680 (PerkinElmer, NET 1021). Assay was set up in 96-well polypropylene plate in total volume of 200 μL by sequentially adding 20 μL 1:20 diluted membrane, 130 μL assay buffer (50 mM Tris.HCl, pH7.4 10 mM MgCl2, 1 mM EDTA) containing [^3H] CGS21680, 50 μL diluted compound (4×) or vehicle control in assay buffer. Nonspecific binding was determined by […] NECA. Reaction was carried out at room temperature for 2 hours before filtering through 96-well GF/C filter plate pre-soaked in 50 mM Tris.HCl, pH7.4 containing 0.3% polyethylenimine. Plates were then washed 5 times with cold 50 mM Tris.HCl, pH7.4, dried and sealed at the bottom. Microscintillation fluid 30 μL was added to each well and the top sealed. Plates were counted on Packard Topcount for [^3H]. Data was analyzed in Microsoft Excel and GraphPad Prism programs. (Varani, K.; Gessi, S.; Dalpiaz, A.; Borea, P. A. British Journal of Pharmacology, 1996, 117, 1693)

The target of assay [2] is T2, human adenosine A1 receptor (Homo sapiens, UniProt P30542).
T2 construct: expressed in transfected cells; host or cells: CHO-K1
T2 sequence (P30542 1-326): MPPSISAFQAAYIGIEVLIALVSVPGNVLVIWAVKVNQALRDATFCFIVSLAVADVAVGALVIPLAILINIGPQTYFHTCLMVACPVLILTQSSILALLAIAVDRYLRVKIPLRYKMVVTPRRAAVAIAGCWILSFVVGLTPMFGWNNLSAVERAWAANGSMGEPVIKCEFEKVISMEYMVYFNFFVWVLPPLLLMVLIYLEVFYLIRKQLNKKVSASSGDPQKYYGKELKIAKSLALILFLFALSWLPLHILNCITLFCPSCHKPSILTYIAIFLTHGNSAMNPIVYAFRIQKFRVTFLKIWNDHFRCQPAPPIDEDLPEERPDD
Nature of the assay: Adenosine A1 Receptor Functional Assay (A1GAL2). In kind it is cell-based. The conditions noted are these: CHO-K1 cells, cAMP inducible beta-galactosidase reporter, 4 nM r-PIA/1 uM Forskolin challenge. On the procedure:
Adenosine A1 Receptor Functional Assay (A1GAL2)
To initiate the functional assay, cryopreserved CHO-K1 cells overexpressing the human adenosine A1 receptor and containing a cAMP inducible beta-galactosidase reporter gene were thawed, centrifuged, DMSO containing media removed, and then seeded with fresh culture media into clear 384-well tissue culture treated plates (BD #353961) at a concentration of 10K cells/well. Prior to assay, these plates were cultured for two days at 37° C., 5% CO2, 90% Rh. On the day of the functional assay, culture media was removed and replaced with 45 uL assay medium (Hams/F-12 Modified (Mediatech # 10-080CV) supplemented w/0.1% BSA). Test compounds were diluted and 11 point curves created at a 1000× concentration in 100% DMSO. Immediately after addition of assay media to the cell plates, […] of the appropriate test compound antagonist or agonist control curves were added to cell plates using a Cartesian Hummingbird. Compound curves were allowed to incubate at room temperature on cell plates for approximately 15 minutes before addition of a 4 nM r-PIA (Sigma P4532)/1 uM Forskolin (Sigma F3917) agonist challenge (5 uL volume). A control curve of r-PIA in 1 uM Forskolin, a DMSO/Media control, and a single dose of Forskolin were also included on each plate. After additions, cell plates were allowed to incubate at 37° C., 5% CO2, 90% Rh for 5.5-6 hours. After incubation, media was removed, and cell plates were washed 1×50 uL with DPBS w/o Ca & Mg (Mediatech 21-031-CV).
Into dry wells, 20 uL of 1× Reporter Lysis Buffer (Promega E3971 (diluted in dH2O from 5× stock)) was added to each well and plates frozen at −20° C. overnight. For β-galactosidase enzyme calorimetric assay, plates were thawed out at room temperature and 20 μL 2× assay buffer (Promega) was added to each well. Color was allowed to develop at 37° C., 5% CO2, 90% Rh for 1-1.5 h or until reasonable signal appeared. The calorimetric reaction was stopped with the addition of 60 μL/well 1M sodium carbonate. Plates were counted at 405 nm on a SpectraMax Microplate Reader (Molecular Devices). Data was analyzed in Microsoft Excel and IC/EC50 curves were fit using a standardized macro.

Assay [3] has as its target T3, human adenosine A2a receptor (Homo sapiens, UniProt P29274).
T3 construct: expressed in transfected cells; host or cells: CHO-K1
Nature of the assay: Adenosine A2a Receptor Functional Assay (A2AGAL2). The conditions noted are these: CHO-K1 cells, cAMP inducible beta-galactosidase reporter, 15 nM NECA agonist challenge. The assay is classed as cell-based. Here is the method: Adenosine A2a Receptor Functional Assay (A2AGAL2)
To initiate the functional assay, cryopreserved CHO-K1 cells overexpressing the human adenosine A2a receptor and containing a cAMP inducible beta-galactosidase reporter gene were thawed, centrifuged, DMSO containing media removed, and then seeded with fresh culture media into clear 384-well tissue culture treated plates (BD #353961) at a concentration of 10K cells/well. Prior to assay, these plates were cultured for two days at 37° C., 5% CO2, 90% Rh. On the day of the functional assay, culture media was removed and replaced with 45 uL assay medium (Hams/F-12 Modified (Mediatech # 10-080CV) supplemented w/0.1% BSA). Test compounds were diluted and 11 point curves created at a 1000× concentration in 100% DMSO. Immediately after addition of assay media to the cell plates, 50 nL of the appropriate test compound antagonist or agonist control curves were added to cell plates using a Cartesian Hummingbird. Compound curves were allowed to incubate at room temperature on cell plates for approximately 15 minutes before addition of a 15 nM NECA (Sigma E2387) agonist challenge (5 uL volume). A control curve of NECA, a DMSO/Media control, and a single dose of Forskolin (Sigma F3917) were also included on each plate. After additions, cell plates were allowed to incubate at 37° C., 5% CO2, 90% Rh for 5.5-6 hours. After incubation, media was removed, and cell plates were washed 1×50 uL with DPBS w/o Ca & Mg (Mediatech 21-031-CV). Into dry wells, 20 uL of 1× Reporter Lysis Buffer (Promega E3971 (diluted in dH2O from 5× stock)) was added to each well and plates frozen at −20° C. overnight. For β-galactosidase enzyme calorimetric assay, plates were thawed out at room temperature and 20 μL 2× assay buffer (Promega) was added to each well. Color was allowed to develop at 37° C., 5% CO2, 90% Rh for 1-1.5 h or until reasonable signal appeared. The calorimetric reaction was stopped with the addition of 60 μL/well 1M sodium carbonate. Plates were counted at 405 nm on a SpectraMax Microplate Reader (Molecular Devices). Data was analyzed in Microsoft Excel and IC/EC50 curves were fit using a standardized macro.

T1 sequence (P29274 whole entry): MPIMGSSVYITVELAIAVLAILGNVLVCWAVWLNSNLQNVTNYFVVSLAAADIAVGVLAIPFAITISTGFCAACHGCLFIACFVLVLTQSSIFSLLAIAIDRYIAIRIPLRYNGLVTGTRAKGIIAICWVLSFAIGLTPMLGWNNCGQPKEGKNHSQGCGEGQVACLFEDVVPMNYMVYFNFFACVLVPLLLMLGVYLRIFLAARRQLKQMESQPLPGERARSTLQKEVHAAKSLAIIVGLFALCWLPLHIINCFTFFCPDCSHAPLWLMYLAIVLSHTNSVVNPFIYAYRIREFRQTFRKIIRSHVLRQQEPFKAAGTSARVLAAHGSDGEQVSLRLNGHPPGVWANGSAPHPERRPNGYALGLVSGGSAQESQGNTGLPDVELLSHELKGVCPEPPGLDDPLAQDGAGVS
T3 sequence (P29274 whole entry): as above

Take `Nc1nc(-c2ccc(Br)o2)nc2sc(CN3CCOCC3)cc12` [Example 7, 2-(5-Bromo-furan-2-yl)-6-morpholin-4-ylmethyl-thieno[2,3-d]pyrimidin-4-ylamine]: the Ki is 0.202 µM in assay [1], 0.698 µM in assay [2] and 0.0183 µM in assay [3].

Turning to `Nc1nc(-c2cccs2)nc2sc(CN3CCOCC3)cc12` [Example 26, 6-Morpholin-4-ylmethyl-2-thiophen-2-yl-thieno[2,3-d]pyrimidin-4-ylamine], the affinity in assay [1], expressed as Ki, was 0.207 µM. This counts as sub-micromolar.

For the molecule `Nc1nc(-c2ccco2)nc2sc(CN3CCCC3)cc12` [Example 28, 2-Furan-2-yl-6-pyrrolidin-1-ylmethyl-thieno[2,3-d]pyrimidin-4-ylamine], the Ki in assay [1] was 0.0144 µM; in assay [2], 6.43 µM; in assay [3], 0.0281 µM.

`Nc1nc(-c2ccco2)nc2sc(CNC3CC3)cc12` [Example 29, 6-Cyclopropylaminomethyl-2-furan-2-yl-thieno[2,3-d]pyrimidin-4-ylamine]: the Ki in assay [1] came to 0.0933 µM; in assay [2], 1.89 µM; in assay [3], 0.0362 µM.

Take `Nc1nc(-c2cccs2)nc2sc(CN3CCCC3)cc12` [Example 30, 6-Pyrrolidin-1-ylmethyl-2-thiophen-2-yl-thieno[2,3-d]pyrimidin-4-ylamine]: the figures for the Ki in assay [1], in assay [2] and in assay [3] were 0.139 µM, over 10 µM and 0.115 µM, respectively.

`CCN(CC)Cc1cc2c(N)nc(-c3ccco3)nc2s1` [Example 31, 6-Diethylaminomethyl-2-furan-2-yl-thieno[2,3-d]pyrimidin-4-ylamine]: the Ki is 0.137 µM in assay [1], 2.13 µM in assay [2] and 0.0552 µM in assay [3].

Regarding `Nc1nc(-c2ccco2)nc2sc(CNC3CCCCC3)cc12` [Example 32, 6-Cyclohexylaminomethyl-2-furan-2-yl-thieno[2,3-d]pyrimidin-4-ylamine], the figures for the Ki in assay [1], in assay [2] and in assay [3] were 0.142 µM, 2.48 µM and 0.168 µM, respectively.

`COCCNCc1cc2c(N)nc(-c3ccco3)nc2s1` [Example 33, 2-Furan-2-yl-6-[(2-methoxy-ethylamino)-methyl]-thieno[2,3-d]pyrimidin-4-ylamine] gave a Ki in assay [1] of 0.216 µM.

Consider `Cc1ccc(-c2nc(N)c3cc(CN4CCCCC4)sc3n2)o1` [Example 34, 2-(5-Methyl-furan-2-yl)-6-piperidin-1-ylmethyl-thieno[2,3-d]pyrimidin-4-ylamine], for which the values for the Ki in assay [1], in assay [2] and in assay [3] were 0.0187 µM, 0.606 µM and 0.0284 µM, respectively.

`Nc1nc(-c2ccc(Br)o2)nc2sc(CN3CCCC3)cc12` [Example 35, 2-(5-Bromo-furan-2-yl)-6-pyrrolidin-1-ylmethyl-thieno[2,3-d]pyrimidin-4-ylamine]: the Ki is 0.015 µM in assay [1], 0.8 µM in assay [2] and 0.022 µM in assay [3].

For the molecule `Cc1ccc(-c2nc(N)c3cc(CN4CCN(C)CC4)sc3n2)o1` [Example 36, 2-(5-Methyl-furan-2-yl)-6-(4-methyl-piperazin-1-ylmethyl)-thieno[2,3-d]pyrimidin-4-ylamine], the affinity in assay [1] corresponds to a Ki of 0.371 µM.

As for `Cc1ccc(-c2nc(N)c3cc(CN4CCOCC4)sc3n2)o1` [Example 38, 2-(5-Methyl-furan-2-yl)-6-morpholin-4-ylmethyl-thieno[2,3-d]pyrimidin-4-ylamine], the Ki in assay [1] amounted to 0.0327 µM; in assay [2], 1.05 µM; in assay [3], 0.0319 µM.

Consider `Cc1ccc(-c2nc(N)c3cc(CN4CCCC4)sc3n2)o1` [Example 39, 2-(5-Methyl-furan-2-yl)-6-pyrrolidin-1-ylmethyl-thieno[2,3-d]pyrimidin-4-ylamine], for which the results for the Ki in assay [1], in assay [2] and in assay [3] were 0.0109 µM, 0.62 µM and 0.0259 µM, respectively.

`Cc1ccc(-c2nc(N)c3cc(CN4CCC(O)C4)sc3n2)o1` (stereo not shown) [Example 40, 1-[4-Amino-2-(5-methyl-furan-2-yl)-thieno[2,3-d]pyrimidin-6-ylmethyl]-pyrrolidin-3-ol]: in assay [1], the affinity corresponds to a Ki of 0.375 µM.

Consider `Cc1ccc(-c2nc(N)c3cc(CN4CCc5ccccc5C4)sc3n2)o1` [Example 41, 6-(3,4-Dihydro-1H-isoquinolin-2-ylmethyl)-2-(5-methyl-furan-2-yl)-thieno[2,3-d]pyrimidin-4-ylamine], for which the values for the Ki in assay [1], in assay [2] and in assay [3] were 0.187 µM, 3.32 µM and 0.202 µM, respectively.

As for `Nc1nc(-c2ccco2)nc2sc(CN3CCOCC3)cc12` [Example 42, 2-Furan-2-yl-6-morpholin-4-ylmethyl-thieno[2,3-d]pyrimidin-4-ylamine], the Ki came to 0.0881 µM in assay [1], 18.2 µM in assay [2] and 0.053 µM in assay [3].

On to `C[C@@H]1CCC[C@H](C)N1Cc1cc2c(N)nc(-c3ccco3)nc2s1` [Example 44, 6-(2,6-Dimethyl-piperidin-1-ylmethyl)-2-furan-2-yl-thieno[2,3-d]pyrimidin-4-ylamine], for which the Ki in assay [1] stood at 0.0014 µM; in assay [2], 0.0998 µM; in assay [3], 0.00565 µM.

Consider `Nc1nc(-c2ccco2)nc2sc(CN3CCC(=O)CC3)cc12` [Example 45, 1-(4-Amino-2-furan-2-yl-thieno[2,3-d]pyrimidin-6-ylmethyl)-piperidin-4-one], for which the Ki in assay [1] came to 0.19 µM; in assay [2] it was 2.72 µM; in assay [3], 0.229 µM.

As for `CN(C)Cc1cc2c(N)nc(-c3ccco3)nc2s1` [Example 46, 6-Dimethylaminomethyl-2-furan-2-yl-thieno[2,3-d]pyrimidin-4-ylamine], the results for the Ki in assay [1], in assay [2] and in assay [3] were 0.089 µM, 3.55 µM and 0.143 µM, respectively.

These data come from US20100093702A1, “METHYLENE AMINES OF THIENO[2,3-d]PYRIMIDINE AND THEIR USE AS ADENOSINE A2a RECEPTOR ANTAGONISTS” (priority 2008, published 2010).
